From ChEMBL document CHEMBL4265965, “Dichloroacetophenones targeting at pyruvate dehydrogenase kinase 1 with improved selectivity and antiproliferative activity: Synthesis and structure-activity relationships” (Bioorg Med Chem Lett, 2018)
Calls of active or inactive are those of the source. The rule behind the calls is not given here.

Legend:
NCI-H1975 [1] = assay: Antiproliferative activity against human NCI-H1975 cells assessed as inhibition of cell proliferation at 12 uM after 72 hrs by MTT assay relative to control; format: functional; details: NCI-H1975, 72 h
NCI-H1975 [2] = assay: Antiproliferative activity against human NCI-H1975 cells assessed as inhibition of cell proliferation at 6 uM after 72 hrs by MTT assay relative to control; format: functional; details: NCI-H1975, 72 h
NCI-H1975 [3] = assay: Antiproliferative activity against human NCI-H1975 cells assessed as inhibition of cell proliferation at 2 uM after 72 hrs by MTT assay relative to control; format: functional; details: NCI-H1975, 72 h
NCI-H1650 [4] = assay: Antiproliferative activity against human NCI-H1650 cells assessed as inhibition of cell proliferation at 12 uM after 72 hrs by MTT assay relative to control; format: functional; details: NCI-H1650, 72 h
NCI-H1650 [5] = assay: Antiproliferative activity against human NCI-H1650 cells assessed as inhibition of cell proliferation at 6 uM after 72 hrs by MTT assay relative to control; format: functional; details: NCI-H1650, 72 h
NCI-H1650 [6] = assay: Antiproliferative activity against human NCI-H1650 cells assessed as inhibition of cell proliferation at 2 uM after 72 hrs by MTT assay relative to control; format: functional; details: NCI-H1650, 72 h
A549 [7] = assay: Antiproliferative activity against human A549 cells assessed as inhibition of cell proliferation at 12 uM after 72 hrs by MTT assay relative to control; format: functional; details: A549, 72 h
A549 [8] = assay: Antiproliferative activity against human A549 cells assessed as inhibition of cell proliferation at 6 uM after 72 hrs by MTT assay relative to control; format: functional; details: A549, 72 h
A549 [9] = assay: Antiproliferative activity against human A549 cells assessed as inhibition of cell proliferation at 2 uM after 72 hrs by MTT assay relative to control; format: functional; details: A549, 72 h
Sus scrofa [10] = organism: Sus scrofa; assay: Inhibition of porcine PDK1 assessed as activation of pyruvate dehydrogenase complex at 1 uM measured after 3 mins
NCI-H1975 [11] = assay: Antiproliferative activity against human NCI-H1975 cells assessed as inhibition of cell proliferation after 72 hrs by MTT assay; format: functional, cell-based; details: NCI-H1975, 72 h
[12] = target: T1, [Pyruvate dehydrogenase (acetyl-transferring)] kinase isozyme 1, mitochondrial (Homo sapiens, UniProt Q15118); assay: Inhibition of recombinant human N-terminal His6/Sumo-tagged PDK1 (29 to 436 residues) expressed in Escherichia coli BL21 at 1 uM by kinase-glo luminescence assay relative to control
T1 sequence (Q15118 whole entry, the tested form may be a part): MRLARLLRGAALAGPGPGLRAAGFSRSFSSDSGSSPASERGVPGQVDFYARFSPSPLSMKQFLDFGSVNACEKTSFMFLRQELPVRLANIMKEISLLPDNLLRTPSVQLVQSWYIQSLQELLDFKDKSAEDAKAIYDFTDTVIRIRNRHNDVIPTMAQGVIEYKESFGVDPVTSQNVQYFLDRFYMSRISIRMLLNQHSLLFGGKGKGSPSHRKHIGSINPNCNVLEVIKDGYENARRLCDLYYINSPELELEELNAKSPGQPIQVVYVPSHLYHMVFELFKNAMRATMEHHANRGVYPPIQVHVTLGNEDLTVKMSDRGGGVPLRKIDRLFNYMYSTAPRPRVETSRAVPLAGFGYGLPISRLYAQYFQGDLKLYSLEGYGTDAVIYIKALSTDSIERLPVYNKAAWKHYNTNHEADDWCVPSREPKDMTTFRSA

[13] = target: Epidermal growth factor receptor (Homo sapiens, UniProt P00533); assay: Inhibition of EGFR phosphorylation in human NCI-H1975 cells at 10 uM after 24 hrs by Western blot analysis; format: cell-based; details: nci-h1975, 24 h
Sequence of Epidermal growth factor receptor (P00533 whole entry): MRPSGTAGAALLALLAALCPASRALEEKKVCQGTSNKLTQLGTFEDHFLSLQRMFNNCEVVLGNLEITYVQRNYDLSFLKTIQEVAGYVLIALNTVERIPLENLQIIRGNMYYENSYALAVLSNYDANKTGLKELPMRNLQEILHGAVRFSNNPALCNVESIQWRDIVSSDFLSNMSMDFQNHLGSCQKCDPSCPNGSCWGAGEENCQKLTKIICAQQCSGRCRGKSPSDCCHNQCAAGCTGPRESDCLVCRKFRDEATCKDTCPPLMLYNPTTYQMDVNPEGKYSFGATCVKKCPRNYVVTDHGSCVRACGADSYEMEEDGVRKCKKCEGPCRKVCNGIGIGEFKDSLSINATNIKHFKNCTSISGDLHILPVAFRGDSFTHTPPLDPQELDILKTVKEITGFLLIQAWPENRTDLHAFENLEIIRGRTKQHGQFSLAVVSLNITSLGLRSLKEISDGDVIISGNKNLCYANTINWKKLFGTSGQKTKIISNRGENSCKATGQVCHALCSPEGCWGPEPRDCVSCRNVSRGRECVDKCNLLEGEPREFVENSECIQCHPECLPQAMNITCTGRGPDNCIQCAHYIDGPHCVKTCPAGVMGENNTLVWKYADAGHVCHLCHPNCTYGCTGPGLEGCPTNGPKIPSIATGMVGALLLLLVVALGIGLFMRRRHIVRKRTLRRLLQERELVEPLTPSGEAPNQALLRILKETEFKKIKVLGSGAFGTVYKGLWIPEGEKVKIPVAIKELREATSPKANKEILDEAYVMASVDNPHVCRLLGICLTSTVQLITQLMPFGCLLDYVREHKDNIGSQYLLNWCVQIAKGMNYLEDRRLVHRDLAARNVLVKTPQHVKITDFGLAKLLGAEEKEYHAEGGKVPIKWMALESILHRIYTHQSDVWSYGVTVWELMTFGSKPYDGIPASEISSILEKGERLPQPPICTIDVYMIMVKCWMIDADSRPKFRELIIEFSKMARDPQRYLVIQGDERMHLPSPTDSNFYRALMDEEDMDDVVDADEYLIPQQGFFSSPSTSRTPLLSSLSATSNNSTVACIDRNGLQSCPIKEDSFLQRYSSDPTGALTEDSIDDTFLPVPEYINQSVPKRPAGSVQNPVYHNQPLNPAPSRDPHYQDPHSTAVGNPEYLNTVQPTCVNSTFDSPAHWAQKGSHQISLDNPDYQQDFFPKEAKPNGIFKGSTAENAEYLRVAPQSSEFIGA

[14] = target: RAC-alpha serine/threonine-protein kinase (Homo sapiens, UniProt P31749); assay: Inhibition of AKT phosphorylation in human NCI-H1975 cells at 10 uM after 24 hrs by Western blot analysis; format: cell-based; details: nci-h1975, 24 h
Sequence of RAC-alpha serine/threonine-protein kinase (P31749 whole entry): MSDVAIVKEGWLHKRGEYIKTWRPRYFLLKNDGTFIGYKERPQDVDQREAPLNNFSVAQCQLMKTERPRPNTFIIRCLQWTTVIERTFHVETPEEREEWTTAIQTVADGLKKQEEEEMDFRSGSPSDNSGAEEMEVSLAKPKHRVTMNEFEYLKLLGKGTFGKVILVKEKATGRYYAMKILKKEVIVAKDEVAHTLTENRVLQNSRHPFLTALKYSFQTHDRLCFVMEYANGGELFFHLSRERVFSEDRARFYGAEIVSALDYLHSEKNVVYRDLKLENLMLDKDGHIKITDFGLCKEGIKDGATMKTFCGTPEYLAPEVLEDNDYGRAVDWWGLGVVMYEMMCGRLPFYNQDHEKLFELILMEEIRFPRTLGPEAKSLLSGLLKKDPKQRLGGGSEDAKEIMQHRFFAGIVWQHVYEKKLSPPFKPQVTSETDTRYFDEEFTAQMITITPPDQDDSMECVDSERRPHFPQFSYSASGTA

[15] = Inhibition of ERK phosphorylation in human NCI-H1975 cells at 10 uM after 24 hrs by Western blot analysis; format: cell-based; details: nci-h1975, 24 h
[16] = target: T1, [Pyruvate dehydrogenase (acetyl-transferring)] kinase isozyme 1, mitochondrial; assay: Binding affinity to recombinant human N-terminal His6/Sumo-tagged PDK1 (29 to 436 residues) expressed in Escherichia coli BL21
[17] = target: T1, [Pyruvate dehydrogenase (acetyl-transferring)] kinase isozyme 1, mitochondrial; assay: Inhibition of PDK1 in human NCI-H1975 cells assessed as switch of pyruvate metabolism from lactate production to oxidative phosphorylation by measuring decrease in extracellular acidification rate at 10 uM pretreated for 4 hrs followed by glucose addition for 1 hr measured for 16 mins; format: cell-based
[18] = target: T1, [Pyruvate dehydrogenase (acetyl-transferring)] kinase isozyme 1, mitochondrial; assay: Inhibition of PDK1 in human NCI-H1975 cells assessed as switch of pyruvate metabolism from lactate production to oxidative phosphorylation by measuring decrease in extracellular acidification rate at 10 uM pretreated for 4 hrs followed by oligomycin addition for 1 hr measured for 16 mins; format: cell-based
[19] = target: T1, [Pyruvate dehydrogenase (acetyl-transferring)] kinase isozyme 1, mitochondrial; assay: Inhibition of PDK1 in human NCI-H1975 cells assessed as switch of pyruvate metabolism from lactate production to oxidative phosphorylation by measuring decrease in extracellular acidification rate at 10 uM pretreated for 4 hrs followed by 2DG addition for 1 hr measured for 16 mins; format: cell-based
[20] = target: T1, [Pyruvate dehydrogenase (acetyl-transferring)] kinase isozyme 1, mitochondrial; assay: Inhibition of PDK1 in human NCI-H1975 cells assessed as switch of pyruvate metabolism from lactate production to oxidative phosphorylation by measuring increase in basal oxygen consumption rate at 10 uM incubated for 4 hrs measured for 16 mins; format: cell-based
[21] = target: T1, [Pyruvate dehydrogenase (acetyl-transferring)] kinase isozyme 1, mitochondrial; assay: Inhibition of PDK1 in human NCI-H1975 cells assessed as switch of pyruvate metabolism from lactate production to oxidative phosphorylation by measuring increase in basal oxygen consumption rate at 10 uM incubated for 4 hrs followed by oligomycin addition for 1 hr measured for 16 mins; format: cell-based
[22] = target: T1, [Pyruvate dehydrogenase (acetyl-transferring)] kinase isozyme 1, mitochondrial; assay: Inhibition of PDK1 in human NCI-H1975 cells assessed as switch of pyruvate metabolism from lactate production to oxidative phosphorylation by measuring increase in basal oxygen consumption rate at 10 uM incubated for 4 hrs followed by FCCP addition for 1 hr measured for 16 mins; format: cell-based
[23] = target: T1, [Pyruvate dehydrogenase (acetyl-transferring)] kinase isozyme 1, mitochondrial; assay: Inhibition of PDK1 in human NCI-H1975 cells assessed as switch of pyruvate metabolism from lactate production to oxidative phosphorylation by measuring increase in basal oxygen consumption rate at 10 uM incubated for 4 hrs followed by antimycinA addition for 1 hr measured for 16 mins; format: cell-based
[24] = target: T1, [Pyruvate dehydrogenase (acetyl-transferring)] kinase isozyme 1, mitochondrial; assay: Inhibition of PDK1 in human NCI-H1975 cells assessed as switch of pyruvate metabolism from lactate production to oxidative phosphorylation by measuring increase in basal oxygen consumption rate at 2.5 to 5 uM incubated for 4 hrs measured for 16 mins; format: cell-based
[25] = target: T1, [Pyruvate dehydrogenase (acetyl-transferring)] kinase isozyme 1, mitochondrial; assay: Inhibition of PDK1 in human NCI-H1975 cells assessed as switch of pyruvate metabolism from lactate production to oxidative phosphorylation by measuring increase in proton leak at 5 uM incubated for 4 hrs followed by oligomycin addition for 1 hr measured for 16 mins; format: cell-based
[26] = target: T1, [Pyruvate dehydrogenase (acetyl-transferring)] kinase isozyme 1, mitochondrial; assay: Inhibition of PDK1 in human NCI-H1975 cells assessed as switch of pyruvate metabolism from lactate production to oxidative phosphorylation by measuring increase in ATP production at 5 uM incubated for 4 hrs followed by oligomycin addition for 1 hr measured for 16 mins; format: cell-based
[27] = target: T1, [Pyruvate dehydrogenase (acetyl-transferring)] kinase isozyme 1, mitochondrial; assay: Inhibition of PDK1 in human NCI-H1975 cells assessed as switch of pyruvate metabolism from lactate production to oxidative phosphorylation by measuring increase in maximum respiration at 5 uM incubated for 4 hrs followed by FCCP addition for 1 hr measured for 16 mins; format: cell-based
Sus scrofa [28] = organism: Sus scrofa; assay: Inhibition of porcine PDK1 assessed as activation of pyruvate dehydrogenase complex at 80 uM measured after 3 mins relative to control
[29] = target: T1, [Pyruvate dehydrogenase (acetyl-transferring)] kinase isozyme 1, mitochondrial; assay: Inhibition of PDK1 in human NCI-H1975 cells assessed as reduction in pyruvate dehydrogenase phosphorylation at 10 uM after 24 hrs by Western blot analysis; format: cell-based
[30] = target: T1, [Pyruvate dehydrogenase (acetyl-transferring)] kinase isozyme 1, mitochondrial; assay: Inhibition of PDK1 in human NCI-H1975 cells assessed as switch of pyruvate metabolism from lactate production to oxidative phosphorylation by measuring decrease in extracellular acidification rate at 20 uM pretreated for 4 hrs followed by glucose addition for 1 hr measured for 16 mins; format: cell-based
[31] = target: T1, [Pyruvate dehydrogenase (acetyl-transferring)] kinase isozyme 1, mitochondrial; assay: Inhibition of PDK1 in human NCI-H1975 cells assessed as switch of pyruvate metabolism from lactate production to oxidative phosphorylation by measuring decrease in extracellular acidification rate at 20 uM pretreated for 4 hrs followed by oligomycin addition for 1 hr measured for 16 mins; format: cell-based
[32] = target: T1, [Pyruvate dehydrogenase (acetyl-transferring)] kinase isozyme 1, mitochondrial; assay: Inhibition of PDK1 in human NCI-H1975 cells assessed as switch of pyruvate metabolism from lactate production to oxidative phosphorylation by measuring decrease in extracellular acidification rate at 20 uM pretreated for 4 hrs followed by 2DG addition for 1 hr measured for 16 mins; format: cell-based
[33] = target: T1, [Pyruvate dehydrogenase (acetyl-transferring)] kinase isozyme 1, mitochondrial; assay: Inhibition of PDK1 in human NCI-H1975 cells assessed as switch of pyruvate metabolism from lactate production to oxidative phosphorylation by measuring increase in basal oxygen consumption rate at 20 uM incubated for 4 hrs measured for 16 mins; format: cell-based
[34] = target: T1, [Pyruvate dehydrogenase (acetyl-transferring)] kinase isozyme 1, mitochondrial; assay: Inhibition of PDK1 in human NCI-H1975 cells assessed as switch of pyruvate metabolism from lactate production to oxidative phosphorylation by measuring increase in basal oxygen consumption rate at 20 uM incubated for 4 hrs followed by oligomycin addition for 1 hr measured for 16 mins; format: cell-based
[35] = target: T1, [Pyruvate dehydrogenase (acetyl-transferring)] kinase isozyme 1, mitochondrial; assay: Inhibition of PDK1 in human NCI-H1975 cells assessed as switch of pyruvate metabolism from lactate production to oxidative phosphorylation by measuring increase in basal oxygen consumption rate at 20 uM incubated for 4 hrs followed by FCCP addition for 1 hr measured for 16 mins; format: cell-based
[36] = target: T1, [Pyruvate dehydrogenase (acetyl-transferring)] kinase isozyme 1, mitochondrial; assay: Inhibition of PDK1 in human NCI-H1975 cells assessed as switch of pyruvate metabolism from lactate production to oxidative phosphorylation by measuring increase in basal oxygen consumption rate at 20 uM incubated for 4 hrs followed by antimycinA addition for 1 hr measured for 16 mins; format: cell-based

Row | Compound | inhibition at 12 µM (NCI-H1975 [1]) | inhibition at 6 µM (NCI-H1975 [2]) | inhibition at 2 µM (NCI-H1975 [3]) | inhibition at 12 µM (NCI-H1650 [4]) | inhibition at 6 µM (NCI-H1650 [5]) | inhibition at 2 µM (NCI-H1650 [6]) | inhibition at 12 µM (A549 [7]) | inhibition at 6 µM (A549 [8]) | inhibition at 2 µM (A549 [9]) | IC50 (NCI-H1975 [11]) | inhibition [12] | inhibition (INH) [13] | inhibition (INH) [14] | inhibition (INH) [15] | Kd [16] | inhibition [17] | inhibition [18] | inhibition [19] | inhibition [20] | inhibition [21] | further results
1 | CC(C)Oc1ccc(C(=O)C(Cl)Cl)cc1[N+](=O)[O-] | 99.5% | 99.1% | 65.5% | 99.5% | 95.9% | 48.6% | 99.7% | 92.5% | 27.7% | 1.26 µM | 84.3% | Not Active | Not Active | Not Active | 0.58 µM | Active | Active | Active | Active | Active | inhibition (Sus scrofa [10]): Active; inhibition [22]: Active; inhibition [23]: inactive; inhibition [24]: Active; inhibition [25]: Active; inhibition [26]: Active; inhibition [27]: Active
2 | CC(C)c1ccc(C(=O)C(Cl)Cl)cc1[N+](=O)[O-] | 99.5% | 95% | 59.8% | 100% | 90% | 36.4% | 96.5% | 75.9% | 22.7% | 1.59 µM | 75.1% | Not Active | Not Active | Not Active | 0.97 µM | Active | Active | Active | Active | Active | inhibition [22]: Active; inhibition [23]: inactive
3 | O=C(c1ccccc1)C(Cl)Cl | 83.7% | 54.3% | 13.2% | 47.9% | 31.3% | 15.3% | 54.4% | 28.5% | 9.2% | 7.9 µM | inactive | Active | Active | Active | – | – | – | – | – | – | inhibition (Sus scrofa [10]): inactive; inhibition (Sus scrofa [28]): 36.6%; inhibition [29]: Active; inhibition [30]: inactive; inhibition [31]: inactive; inhibition [32]: Active; inhibition [33]: Active; inhibition [34]: Active; inhibition [35]: Active; inhibition [36]: inactive
4 | CCc1ccc(C(=O)C(Cl)Cl)cc1[N+](=O)[O-] | 98.9% | 93.2% | 57% | 100% | 79.3% | 35.6% | 93.7% | 71.4% | 20.2% | 1.75 µM | 66.6% | Not Active | Not Active | Not Active | 1.29 µM | Active | Active | Active | Active | Active | inhibition [22]: Active; inhibition [23]: inactive
